For assay [1], the target named is T1, Mu-type opioid receptor (Homo sapiens, UniProt P35372).
Assay [2] concerns the target T2, Alpha-1A adrenergic receptor (Homo sapiens, UniProt P35348).
T2 sequence (P35348 whole entry): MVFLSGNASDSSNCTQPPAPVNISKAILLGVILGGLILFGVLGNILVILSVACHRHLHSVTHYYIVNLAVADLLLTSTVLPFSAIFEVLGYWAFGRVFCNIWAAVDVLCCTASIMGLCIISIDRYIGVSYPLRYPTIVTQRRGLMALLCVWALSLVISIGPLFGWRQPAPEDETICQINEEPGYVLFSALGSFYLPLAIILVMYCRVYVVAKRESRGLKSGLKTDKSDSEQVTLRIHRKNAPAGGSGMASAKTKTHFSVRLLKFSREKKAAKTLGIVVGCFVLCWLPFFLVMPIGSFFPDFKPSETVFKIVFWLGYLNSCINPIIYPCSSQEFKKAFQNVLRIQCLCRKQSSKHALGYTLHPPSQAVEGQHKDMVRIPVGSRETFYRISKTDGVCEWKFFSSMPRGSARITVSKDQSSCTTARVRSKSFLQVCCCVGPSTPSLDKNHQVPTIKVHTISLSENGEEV

A further assay has as its target Histamine H1 receptor (Homo sapiens, UniProt P35367).
In assay [3] the target is Beta-2 adrenergic receptor (Homo sapiens, UniProt P07550). Format: functional, cell-based.
In assay [4] the target is 5-hydroxytryptamine receptor 2B (Homo sapiens, UniProt P41595). Format: functional, cell-based.
Assay [5] addresses Gamma-aminobutyric acid receptor subunit alpha-1 (Rattus norvegicus, UniProt P62813).
A further assay addresses Cannabinoid receptor 1 (Homo sapiens, UniProt P21554). Format: functional, cell-based.
A further assay deals with T3, Estrogen receptor (Homo sapiens, UniProt P03372).
T3 sequence (P03372 whole entry): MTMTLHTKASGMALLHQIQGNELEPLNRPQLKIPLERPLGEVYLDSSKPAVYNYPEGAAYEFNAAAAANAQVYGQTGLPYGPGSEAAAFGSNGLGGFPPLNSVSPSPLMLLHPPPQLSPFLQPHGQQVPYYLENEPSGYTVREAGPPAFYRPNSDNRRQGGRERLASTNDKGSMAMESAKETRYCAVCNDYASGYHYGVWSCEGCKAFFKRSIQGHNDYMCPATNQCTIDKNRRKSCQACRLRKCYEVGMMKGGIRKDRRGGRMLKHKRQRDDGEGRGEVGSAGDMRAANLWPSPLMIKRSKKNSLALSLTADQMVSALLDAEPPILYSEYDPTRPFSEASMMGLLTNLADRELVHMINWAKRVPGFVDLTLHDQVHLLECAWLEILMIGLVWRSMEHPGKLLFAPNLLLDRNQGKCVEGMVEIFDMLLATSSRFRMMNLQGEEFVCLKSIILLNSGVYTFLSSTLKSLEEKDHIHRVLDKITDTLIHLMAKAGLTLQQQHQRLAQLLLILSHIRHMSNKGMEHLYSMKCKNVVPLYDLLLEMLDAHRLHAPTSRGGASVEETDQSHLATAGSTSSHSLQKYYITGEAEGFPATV

Assay [6] has as its target Kappa-type opioid receptor (Homo sapiens, UniProt P41145).
The target of the next assay is D(1A) dopamine receptor (Homo sapiens, UniProt P21728). Format: functional, cell-based.
In another assay the target is T4, Progesterone receptor (Homo sapiens, UniProt P06401).
T4 sequence (P06401 whole entry): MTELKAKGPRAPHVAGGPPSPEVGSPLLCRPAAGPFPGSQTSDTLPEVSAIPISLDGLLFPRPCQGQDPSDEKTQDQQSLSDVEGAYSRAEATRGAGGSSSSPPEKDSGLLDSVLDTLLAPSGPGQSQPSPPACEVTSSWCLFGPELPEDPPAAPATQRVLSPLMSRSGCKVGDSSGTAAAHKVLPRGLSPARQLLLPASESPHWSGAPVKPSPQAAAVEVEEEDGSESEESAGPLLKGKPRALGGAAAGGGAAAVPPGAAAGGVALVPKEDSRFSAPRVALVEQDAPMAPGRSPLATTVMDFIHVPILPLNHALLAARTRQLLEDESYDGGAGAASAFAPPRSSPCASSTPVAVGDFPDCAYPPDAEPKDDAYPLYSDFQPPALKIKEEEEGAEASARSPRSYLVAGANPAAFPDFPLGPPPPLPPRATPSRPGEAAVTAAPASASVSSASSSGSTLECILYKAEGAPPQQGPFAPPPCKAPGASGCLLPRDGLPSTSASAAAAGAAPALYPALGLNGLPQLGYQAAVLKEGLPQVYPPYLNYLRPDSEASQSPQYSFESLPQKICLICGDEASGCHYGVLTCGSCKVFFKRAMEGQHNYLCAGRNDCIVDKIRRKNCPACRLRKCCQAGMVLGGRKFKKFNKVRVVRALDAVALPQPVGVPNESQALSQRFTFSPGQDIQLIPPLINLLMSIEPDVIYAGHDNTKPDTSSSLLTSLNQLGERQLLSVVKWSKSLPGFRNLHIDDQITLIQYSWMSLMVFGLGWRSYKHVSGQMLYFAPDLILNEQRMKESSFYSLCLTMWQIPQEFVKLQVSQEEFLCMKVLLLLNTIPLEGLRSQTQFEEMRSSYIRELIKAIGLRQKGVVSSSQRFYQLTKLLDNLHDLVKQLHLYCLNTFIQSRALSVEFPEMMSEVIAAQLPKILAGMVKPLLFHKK
Format: functional.

Assay [7] concerns the target T1, Mu-type opioid receptor. This is another data set of the same source.
Assay [8] concerns the target cGMP-inhibited 3',5'-cyclic phosphodiesterase 3A (Homo sapiens, UniProt Q14432). Format: functional.
Another assay has as its target T5, Thromboxane A2 receptor (Homo sapiens, UniProt P21731).
T5 sequence (P21731 whole entry): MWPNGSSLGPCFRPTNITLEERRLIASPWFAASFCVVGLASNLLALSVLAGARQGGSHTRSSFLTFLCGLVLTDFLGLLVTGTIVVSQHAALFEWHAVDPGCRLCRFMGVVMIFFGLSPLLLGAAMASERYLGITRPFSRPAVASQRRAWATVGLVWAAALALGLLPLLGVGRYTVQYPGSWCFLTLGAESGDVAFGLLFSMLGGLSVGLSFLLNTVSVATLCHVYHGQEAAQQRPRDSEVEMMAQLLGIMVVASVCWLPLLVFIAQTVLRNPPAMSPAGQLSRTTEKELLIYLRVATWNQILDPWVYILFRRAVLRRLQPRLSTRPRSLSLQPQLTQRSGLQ
Format: functional, cell-based.
Also: assay procedure not described here.

Chain of 5-hydroxytryptamine receptor 2B (P41595 whole entry): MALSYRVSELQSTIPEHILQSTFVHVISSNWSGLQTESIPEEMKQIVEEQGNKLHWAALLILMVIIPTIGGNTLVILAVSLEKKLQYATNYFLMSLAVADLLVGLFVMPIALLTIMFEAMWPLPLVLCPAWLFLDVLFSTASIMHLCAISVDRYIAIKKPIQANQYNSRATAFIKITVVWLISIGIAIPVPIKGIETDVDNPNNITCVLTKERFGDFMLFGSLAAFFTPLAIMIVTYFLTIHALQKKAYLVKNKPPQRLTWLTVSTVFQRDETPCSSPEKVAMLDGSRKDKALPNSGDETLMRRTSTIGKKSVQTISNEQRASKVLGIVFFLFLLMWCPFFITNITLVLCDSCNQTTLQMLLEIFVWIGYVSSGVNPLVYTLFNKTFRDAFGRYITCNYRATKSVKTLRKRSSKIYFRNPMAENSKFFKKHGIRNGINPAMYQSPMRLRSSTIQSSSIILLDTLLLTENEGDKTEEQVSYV
Chain of Gamma-aminobutyric acid receptor subunit alpha-1 (P62813 whole entry): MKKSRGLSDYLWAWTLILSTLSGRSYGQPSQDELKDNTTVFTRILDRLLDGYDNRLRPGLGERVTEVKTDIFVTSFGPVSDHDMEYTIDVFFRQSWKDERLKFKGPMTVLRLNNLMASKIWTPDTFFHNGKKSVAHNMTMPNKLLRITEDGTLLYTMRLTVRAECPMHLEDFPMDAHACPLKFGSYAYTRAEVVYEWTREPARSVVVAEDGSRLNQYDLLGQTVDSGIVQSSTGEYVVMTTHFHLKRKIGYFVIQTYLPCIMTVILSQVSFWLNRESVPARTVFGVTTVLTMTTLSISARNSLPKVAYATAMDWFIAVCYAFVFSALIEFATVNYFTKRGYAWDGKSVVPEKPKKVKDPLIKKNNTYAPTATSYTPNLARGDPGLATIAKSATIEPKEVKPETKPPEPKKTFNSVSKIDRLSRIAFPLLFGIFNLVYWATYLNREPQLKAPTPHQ
Chain of D(1A) dopamine receptor (P21728 whole entry): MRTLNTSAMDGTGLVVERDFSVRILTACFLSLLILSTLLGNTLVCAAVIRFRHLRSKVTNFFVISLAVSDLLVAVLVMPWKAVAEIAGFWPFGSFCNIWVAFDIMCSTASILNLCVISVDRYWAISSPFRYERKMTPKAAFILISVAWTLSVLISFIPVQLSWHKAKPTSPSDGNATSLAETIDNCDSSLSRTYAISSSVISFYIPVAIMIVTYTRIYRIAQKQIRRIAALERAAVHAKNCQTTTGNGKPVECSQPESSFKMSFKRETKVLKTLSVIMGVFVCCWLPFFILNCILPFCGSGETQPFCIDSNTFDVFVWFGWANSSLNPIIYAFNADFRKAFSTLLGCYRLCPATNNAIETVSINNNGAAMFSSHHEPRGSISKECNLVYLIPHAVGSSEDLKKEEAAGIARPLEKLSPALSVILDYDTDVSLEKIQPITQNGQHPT
T1 sequence (P35372 whole entry): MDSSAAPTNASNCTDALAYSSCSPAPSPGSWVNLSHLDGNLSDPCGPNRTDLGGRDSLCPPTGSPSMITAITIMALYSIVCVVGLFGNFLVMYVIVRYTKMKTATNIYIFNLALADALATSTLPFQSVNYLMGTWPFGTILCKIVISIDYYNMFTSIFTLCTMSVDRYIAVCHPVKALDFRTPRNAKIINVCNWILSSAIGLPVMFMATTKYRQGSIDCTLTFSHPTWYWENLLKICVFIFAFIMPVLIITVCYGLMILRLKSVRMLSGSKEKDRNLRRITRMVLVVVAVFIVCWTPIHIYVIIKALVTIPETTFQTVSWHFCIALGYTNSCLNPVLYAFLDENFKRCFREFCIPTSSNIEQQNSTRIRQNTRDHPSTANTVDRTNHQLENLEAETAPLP
Chain of Kappa-type opioid receptor (P41145 whole entry): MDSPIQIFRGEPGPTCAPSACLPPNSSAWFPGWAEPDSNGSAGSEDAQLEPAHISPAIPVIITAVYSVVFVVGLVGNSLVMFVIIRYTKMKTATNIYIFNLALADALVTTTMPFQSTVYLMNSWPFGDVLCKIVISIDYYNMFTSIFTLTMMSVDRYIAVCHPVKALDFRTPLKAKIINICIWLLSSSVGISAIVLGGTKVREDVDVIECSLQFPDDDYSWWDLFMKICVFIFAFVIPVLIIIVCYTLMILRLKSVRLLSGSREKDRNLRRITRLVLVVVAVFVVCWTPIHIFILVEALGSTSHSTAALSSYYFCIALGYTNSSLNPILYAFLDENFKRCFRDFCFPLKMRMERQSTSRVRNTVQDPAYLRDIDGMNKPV
Chain of Histamine H1 receptor (P35367 whole entry): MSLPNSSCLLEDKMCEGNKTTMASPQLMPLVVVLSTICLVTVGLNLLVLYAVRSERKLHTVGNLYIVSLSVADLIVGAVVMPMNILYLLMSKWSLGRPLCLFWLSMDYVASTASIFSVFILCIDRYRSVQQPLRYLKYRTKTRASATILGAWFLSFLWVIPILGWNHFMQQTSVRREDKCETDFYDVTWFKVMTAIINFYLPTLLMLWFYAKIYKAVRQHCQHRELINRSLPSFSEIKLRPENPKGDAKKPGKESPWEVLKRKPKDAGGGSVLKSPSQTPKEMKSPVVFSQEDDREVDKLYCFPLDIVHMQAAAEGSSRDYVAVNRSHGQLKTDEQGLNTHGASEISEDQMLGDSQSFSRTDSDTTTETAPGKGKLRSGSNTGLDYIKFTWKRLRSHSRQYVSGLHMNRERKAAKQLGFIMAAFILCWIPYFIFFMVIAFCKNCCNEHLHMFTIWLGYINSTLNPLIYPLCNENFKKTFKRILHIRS
Chain of Cannabinoid receptor 1 (P21554 whole entry): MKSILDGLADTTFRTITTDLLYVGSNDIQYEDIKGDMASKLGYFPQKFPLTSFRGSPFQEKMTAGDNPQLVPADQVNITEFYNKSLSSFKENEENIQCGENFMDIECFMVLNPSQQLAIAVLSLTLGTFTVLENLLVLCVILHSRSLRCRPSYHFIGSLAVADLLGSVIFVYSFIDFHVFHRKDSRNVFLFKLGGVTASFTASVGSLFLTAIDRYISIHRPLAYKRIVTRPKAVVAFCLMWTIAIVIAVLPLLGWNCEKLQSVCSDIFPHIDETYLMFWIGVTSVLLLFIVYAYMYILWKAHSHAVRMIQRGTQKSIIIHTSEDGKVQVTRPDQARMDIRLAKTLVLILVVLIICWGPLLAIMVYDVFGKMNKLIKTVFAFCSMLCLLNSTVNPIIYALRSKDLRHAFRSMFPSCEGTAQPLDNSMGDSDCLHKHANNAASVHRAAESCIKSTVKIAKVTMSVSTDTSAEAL
Chain of Beta-2 adrenergic receptor (P07550 whole entry): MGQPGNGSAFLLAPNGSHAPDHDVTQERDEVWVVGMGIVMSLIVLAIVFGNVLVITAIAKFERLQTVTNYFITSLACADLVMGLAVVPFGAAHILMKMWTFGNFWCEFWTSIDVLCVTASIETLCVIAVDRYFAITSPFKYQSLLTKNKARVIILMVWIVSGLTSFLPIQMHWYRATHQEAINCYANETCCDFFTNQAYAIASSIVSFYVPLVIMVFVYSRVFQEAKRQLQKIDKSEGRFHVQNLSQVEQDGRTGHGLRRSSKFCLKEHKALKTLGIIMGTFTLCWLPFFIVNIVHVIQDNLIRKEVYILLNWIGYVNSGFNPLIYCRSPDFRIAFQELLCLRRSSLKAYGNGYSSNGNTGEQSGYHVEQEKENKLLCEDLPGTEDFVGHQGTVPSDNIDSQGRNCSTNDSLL
Chain of cGMP-inhibited 3',5'-cyclic phosphodiesterase 3A (Q14432 whole entry): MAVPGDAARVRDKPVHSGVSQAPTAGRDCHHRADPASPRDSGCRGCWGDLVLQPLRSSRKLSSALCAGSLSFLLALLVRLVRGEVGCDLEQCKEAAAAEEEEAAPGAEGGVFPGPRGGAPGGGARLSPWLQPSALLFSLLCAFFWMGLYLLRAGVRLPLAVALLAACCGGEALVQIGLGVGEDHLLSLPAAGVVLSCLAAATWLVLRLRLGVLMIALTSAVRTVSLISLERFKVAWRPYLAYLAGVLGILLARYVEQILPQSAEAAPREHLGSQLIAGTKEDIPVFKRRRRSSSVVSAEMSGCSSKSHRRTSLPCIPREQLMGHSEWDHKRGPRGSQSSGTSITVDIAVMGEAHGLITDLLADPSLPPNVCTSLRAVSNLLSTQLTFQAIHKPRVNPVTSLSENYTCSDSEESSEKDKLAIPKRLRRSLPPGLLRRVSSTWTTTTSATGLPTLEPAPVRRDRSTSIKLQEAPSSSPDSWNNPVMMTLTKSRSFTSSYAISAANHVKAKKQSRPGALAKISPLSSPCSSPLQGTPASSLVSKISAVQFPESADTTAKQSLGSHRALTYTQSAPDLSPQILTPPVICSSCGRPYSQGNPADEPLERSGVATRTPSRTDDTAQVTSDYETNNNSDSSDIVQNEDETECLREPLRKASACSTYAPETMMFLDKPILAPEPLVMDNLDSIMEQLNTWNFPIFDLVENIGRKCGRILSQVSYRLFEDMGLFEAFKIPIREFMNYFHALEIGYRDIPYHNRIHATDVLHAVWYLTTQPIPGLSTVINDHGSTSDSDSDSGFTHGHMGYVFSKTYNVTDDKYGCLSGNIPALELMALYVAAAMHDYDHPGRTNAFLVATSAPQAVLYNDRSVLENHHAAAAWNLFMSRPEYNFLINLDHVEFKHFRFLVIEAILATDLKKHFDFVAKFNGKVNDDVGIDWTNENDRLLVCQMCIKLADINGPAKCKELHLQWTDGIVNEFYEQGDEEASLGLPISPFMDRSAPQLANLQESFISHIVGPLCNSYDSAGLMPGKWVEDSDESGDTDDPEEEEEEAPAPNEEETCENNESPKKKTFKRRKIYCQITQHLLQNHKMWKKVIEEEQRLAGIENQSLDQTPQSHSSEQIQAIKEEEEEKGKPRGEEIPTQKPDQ

Broadly, the AC50 is the midpoint of the concentration-response curve, whichever way the signal moves. Read a high AC50 as weaker potency. Take `CN1CCC(=C2c3ccccc3CCc3cccnc32)CC1` [AZATADINE]: the AC50 is greater than 30 µM on Mu-type opioid receptor [1]; 8.64 µM in assay [2]; 0.0066 µM on Histamine H1 receptor; greater than 30 µM in assay [3]; 1.6 µM in assay [4]; greater than 10 µM in assay [5]. Also, the AC50 on Cannabinoid receptor 1 was greater than 30 µM; at Estrogen receptor, greater than 30 µM; in assay [6] it was 9.38 µM; at D(1A) dopamine receptor it was greater than 10 µM.

`CCCCC(=O)O[C@]1(C(=O)CO)[C@@H](C)C[C@H]2[C@@H]3CCC4=CC(=O)C=C[C@]4(C)[C@@]3(F)[C@@H](O)C[C@@]21C` [BETAMETHASONE VALERATE]: the AC50 on Mu-type opioid receptor [1] was greater than 30 µM; in assay [2] it was greater than 10 µM; at Histamine H1 receptor, greater than 10 µM; in assay [3] it was greater than 30 µM; in [4] it was greater than 10 µM; in [5] it was greater than 10 µM. The AC50 is greater than 30 µM on Cannabinoid receptor 1, greater than 30 µM on Estrogen receptor, greater than 10 µM in assay [6] and greater than 10 µM on D(1A) dopamine receptor.

Regarding `CC(CCc1ccc(O)cc1)NCCc1ccc(O)c(O)c1` (configuration not stated) [DOBUTAMINE], the concentration at half-maximal activity (AC50) at Progesterone receptor is greater than 30000 nM; at Mu-type opioid receptor [1], 1.7 µM; in assay [2] it was 0.255 µM; in [3] it was greater than 30 µM; in assay [4], greater than 30 µM; in assay [5] it was greater than 30 µM. Further, the AC50 at Cannabinoid receptor 1 was greater than 30 µM; on Estrogen receptor, greater than 30 µM; in assay [6], 6.86 µM; on D(1A) dopamine receptor, 13 µM.

For `CCC(=O)O[C@]1(C(=O)SCF)[C@H](C)C[C@H]2[C@@H]3C[C@H](F)C4=CC(=O)C=C[C@]4(C)[C@@]3(F)[C@@H](O)C[C@@]21C` [FLUTICASONE PROPIONATE], the AC50 was greater than 30 µM at Mu-type opioid receptor [7]; greater than 30 µM at Mu-type opioid receptor [1]; greater than 10 µM in assay [2]; greater than 30 µM at Histamine H1 receptor; greater than 30 µM in assay [8]; greater than 30 µM in [3]. In addition, the half-maximal activity concentration (AC50) (in assay [4]; in [5]; at Cannabinoid receptor 1; at Thromboxane A2 receptor; in assay [6]; at D(1A) dopamine receptor) was greater than 30 µM each time.

With `CC12CC3CC(C)(C1)CC(N)(C3)C2` [MEMANTINE], the AC50 is greater than 10 µM on Mu-type opioid receptor [1]; greater than 10 µM in assay [2]; greater than 10 µM on Histamine H1 receptor; greater than 30 µM in [3]; greater than 10 µM in assay [4]; greater than 10 µM in assay [5]. Besides, the half-maximal activity concentration (AC50) on Cannabinoid receptor 1 was greater than 30 µM; on Estrogen receptor, 1.6 µM; in [6] it was 15.2 µM; on D(1A) dopamine receptor, greater than 10 µM.

Consider `CCOC(=O)C1=C(C)NC(C)=C(C(=O)OC)C1c1cccc([N+](=O)[O-])c1` (configuration not stated) [NITRENDIPINE], for which the half-maximal activity concentration (AC50) on Mu-type opioid receptor [1] was greater than 30 µM; in [2], greater than 10 µM; in assay [3] it was greater than 30 µM; in assay [4], greater than 10 µM; in assay [5] it was greater than 10 µM; on Cannabinoid receptor 1, 22 µM. Further, the AC50 on Estrogen receptor is greater than 30 µM; in [6], greater than 10 µM; at D(1A) dopamine receptor it was greater than 30 µM.

Consider `CCC(=O)O[C@H]1CC[C@H]2[C@@H]3CCC4=CC(=O)CC[C@]4(C)[C@H]3CC[C@]12C` [TESTOSTERONE PROPIONATE], for which the AC50 at Progesterone receptor was 328 nM; at Mu-type opioid receptor [1], greater than 30 µM; in [2] it was greater than 10 µM; on Histamine H1 receptor, greater than 10 µM; in [3], greater than 30 µM; in assay [4], greater than 10 µM. Moreover, the concentration at half-maximal activity (AC50) was greater than 10 µM in assay [5]; greater than 30 µM at Cannabinoid receptor 1; greater than 30 µM on Estrogen receptor; 7.71 µM in [6]; greater than 10 µM at D(1A) dopamine receptor.

For `CCCC(CCC)C(N)=O` [VALPROMIDE], the AC50 on Mu-type opioid receptor [1] is greater than 30 µM; in assay [2] it was greater than 10 µM; at Histamine H1 receptor, greater than 10 µM; in assay [3], greater than 30 µM; in [4], greater than 10 µM; in assay [5], greater than 10 µM. Also, the AC50 was greater than 30 µM on Cannabinoid receptor 1, greater than 30 µM on Estrogen receptor, greater than 10 µM in assay [6] and greater than 10 µM at D(1A) dopamine receptor.

For the origin of these results see ChEMBL document CHEMBL5291721, “A preclinical secondary pharmacology resource illuminates target-adverse drug reaction associations of marketed drugs” (Nat Commun, 2023).
